Columns and labels:
[1] = tested on: Granta-519; test: Induction of apoptosis in human Granta-519 cells assessed as viable cells at 2000 nM incubated for 48 hrs by Annexin-V-FITC/propidium iodide staining based flow cytometry (reference value: 92.7 %); format: functional; conditions: read-out: Activity
[2] = tested on: Granta-519; test: Antiproliferative activity against human Granta-519 cells assessed as inhibition of cell growth incubated for 72 hrs by MTS assay; format: functional, cell-based; conditions: Granta-519, 72 h
[3] = tested on: A2780; test: Antiproliferative activity against human A2780 cells assessed as inhibition of cell growth incubated for 72 hrs by MTS assay; format: functional, cell-based; conditions: A2780, 72 h
[4] = tested on: OCI-Ly10; test: Antiproliferative activity against human OCI-Ly10 cells assessed as inhibition of cell growth incubated for 72 hrs by MTS assay; format: functional, cell-based; conditions: OCI-Ly10, 72 h
[5] = tested on: LoVo; test: Antiproliferative activity against human LoVo cells assessed as inhibition of cell growth incubated for 72 hrs by MTS assay; format: functional, cell-based
[6] = tested on: HCT-116; test: Antiproliferative activity against human HCT-116 cells assessed as inhibition of cell growth incubated for 72 hrs by MTS assay; format: functional, cell-based; conditions: HCT-116, 72 h
[7] = tested on: NCI-H446; test: Antiproliferative activity against human NCI-H446 cells assessed as inhibition of cell growth incubated for 72 hrs by MTS assay; format: functional, cell-based; conditions: NCI-H446, 72 h
[8] = tested on: HT-29; test: Antiproliferative activity against human HT-29 cells assessed as inhibition of cell growth incubated for 72 hrs by MTS assay; format: functional, cell-based; conditions: HT-29, 72 h
[9] = tested on: SUD4; test: Antiproliferative activity against human SU-DHL-4 cells assessed as inhibition of cell growth incubated for 72 hrs by MTS assay; format: functional, cell-based; conditions: SU-DHL-4, 72 h
[10] = tested on: DLD-1; test: Antiproliferative activity against human DLD-1 cells assessed as inhibition of cell growth incubated for 72 hrs by MTS assay; format: functional, cell-based; conditions: DLD-1, 72 h
[11] = tested on: CAPAN-1; test: Antiproliferative activity against human CAPAN-1 cells assessed as inhibition of cell growth incubated for 72 hrs by MTS assay; format: functional, cell-based; conditions: CAPAN-1, 72 h
[12] = tested on: PC-3; test: Antiproliferative activity against human PC-3 cells assessed as inhibition of cell growth incubated for 72 hrs by MTS assay; format: functional, cell-based; conditions: PC-3, 72 h
[13] = Tmax in BALB/c mouse at 75 mg/kg,po measured upto 24 hrs by LC-MS/MS analysis; format: ADME, organism-based; conditions: in vivo
[14] = Cmax in BALB/c mouse at 75 mg/kg,po measured upto 24 hrs by LC-MS/MS analysis; format: ADME, organism-based; conditions: in vivo
[15] = AUCinfinity in BALB/c mouse at 75 mg/kg,po measured upto 24 hrs by LC-MS/MS analysis; format: ADME, organism-based; conditions: in vivo
[16] = Half life in BALB/c mouse at 75 mg/kg,po measured upto 24 hrs by LC-MS/MS analysis; format: ADME, organism-based; conditions: in vivo
[17] = Brain to plasma ratio in ICR mouse at 50 mg/kg,po measured upto 24 hrs by LC-MS/MS analysis; format: ADME, organism-based
[18] = tested on: Granta-519; test: Induction of cell cycle arrest in human Granta-519 cells assessed as accumulation of cells at G1 phase at 2000 nM incubated for 24 hrs by propidium iodide staining based flow cytometry (reference value: 45.83 %); format: functional
[19] = tested on: Granta-519; test: Induction of cell cycle arrest in human Granta-519 cells assessed as accumulation of cells at S phase at 2000 nM incubated for 24 hrs by propidium iodide staining based flow cytometry (reference value: 44.81 %); format: functional
[20] = tested on: Granta-519; test: Induction of apoptosis in human Granta-519 cells assessed as early apoptotic cells at 2000 nM incubated for 48 hrs by Annexin-V-FITC/propidium iodide staining based flow cytometry (reference value: 3.75 %); format: functional
[21] = tested on: Granta-519; test: Induction of apoptosis in human Granta-519 cells assessed as late apoptotic cells at 2000 nM incubated for 48 hrs by Annexin-V-FITC/propidium iodide staining based flow cytometry (reference value: 3.07 %); format: functional
[22] = tested on: Granta-519; test: Induction of apoptosis in human Granta-519 cells assessed as necrotic cells at 2000 nM incubated for 48 hrs by Annexin-V-FITC/propidium iodide staining based flow cytometry (reference value: 0.429 %); format: functional

- IC50 [3]: 620 nM
- IC50 [4]: 520 nM
- IC50 [5]: 1140 nM
- IC50 [6]: 1120 nM
- IC50 [7]: 1960 nM
- IC50 [8]: 2590 nM
- IC50 [10]: 5280 nM
- IC50 [12]: 11300 nM
- Tmax [13]: 0.25 h
- Cmax [14]: 12000 ng/mL
- AUC(0-inf) [15]: 41600 ng·h/mL
- half-life [16]: 1.93 h
- BPR [17]: 6.6%
Compound: C[C@@H]1COCCN1c1cc(C2([S@](C)(=N)=O)CC2)nc(-c2cc[nH]c3nccc2-3)n1 [CERALASERTIB]
- viability at 2 µM [1]: 78%
- IC50 [2]: 550 nM
- IC50 [9]: 2260 nM
- IC50 [11]: 5540 nM
- Activity [18]: 30.16%
- Activity [19]: 67.69%
- Activity [20]: 8.66%
- Activity [21]: 10.3%
- Activity [22]: 3.07%
